# Test results as given in patent US6069145A, “Piperazinonephenyloxazolidinone derivatives and their use as antibacterial agents” (Zeneca Limited, priority 1996, dated 2000).
# How the values were obtained:
# Format in all cases: cell-based
# Bacillus subtilis = experiment: agar-dilution MIC, B. subtilis; conditions: 10^4 CFU/spot
# Text: (§1) The following results were obtained on a standard in vitro test system. The activity is described in terms of the minimum inhibitory concentration (MIC) determined by the agar-dilution technique with an inoculum size of 10^4 CFU/spot.
# [1] = system: Coagulase Negative Staphylococci MR; experiment: agar-dilution MIC, coagulase negative staphylococci MR; conditions: methicillin resistant, 10^4 CFU/spot, 37° C., 24 hours
# Procedure: as §1
# (§2) Staphylococci were tested on agar, using an inoculum of 10^4 CFU/spot and an incubation temperature of 37° C. for 24 hours--standard test conditions for the expression of methicillin resistance.
# MR = methicillin resistant
# Enterococcus faecalis = experiment: agar-dilution MIC, E. faecalis; conditions: agar with 5% defibrinated horse blood, 10^4 CFU/spot, 37° C., 5% carbon dioxide, 48 hours
# Procedure: as §1
# (§3) Streptococci and enterococci were tested on agar supplemented with 5% defibrinated horse blood, an inoculum of 10^4 CFU/spot and an incubation temperature of 37° C. in an atmosphere of 5% carbon dioxide for 48 hours--blood is required for the growth of some of the test organisms.
# [2] = system: Staphylococcus aureus MRQR; experiment: agar-dilution MIC, S. aureus MRQR; conditions: methicillin resistant quinolone resistant, 10^4 CFU/spot, 37° C., 24 hours
# Procedure: as §1, §2
# MRQR = methicillin resistant quinolone resistant
# [3] = system: Coagulase Negative Staphylococci MS; experiment: agar-dilution MIC, coagulase negative staphylococci MS; conditions: 10^4 CFU/spot, 37° C., 24 hours
# Procedure: as §1, §2
# [4] = system: Staphylococcus aureus Oxford; experiment: agar-dilution MIC, S. aureus Oxford; conditions: 10^4 CFU/spot, 37° C., 24 hours
# Procedure: as §1, §2
# [5] = system: Streptococcus pyogenes C203; experiment: agar-dilution MIC, S. pyogenes C203; conditions: agar with 5% defibrinated horse blood, 10^4 CFU/spot, 37° C., 5% carbon dioxide, 48 hours
# Procedure: as §1, §3
# [6] = system: Staphylococcus aureus MRQS; experiment: agar-dilution MIC, S. aureus MRQS; conditions: methicillin resistant quinolone sensitive, 10^4 CFU/spot, 37° C., 24 hours
# Procedure: as §1, §2
# MRQS = methicillin resistant quinolone sensitive
compound,measurement,setting,value
"CC(=O)NC[C@H]1CN(c2ccc(N3CCN(C)C(=O)C3)c(F)c2)C(=O)O1 [Example 1, N-(5S)-[3-(3-fluoro-4-{4-methyl-3-oxopiperazin-1-yl}phenyl)-2-oxooxazolidin-5-ylmethyl]acetamide]",MIC,Bacillus subtilis,1 µg/mL
same,MIC,[1],1 µg/mL
same,MIC,Enterococcus faecalis,2 µg/mL
same,MIC,[2],4 µg/mL
same,MIC,[3],0.5 µg/mL
same,MIC,[4],1 µg/mL
same,MIC,[5],1 µg/mL
same,MIC,[6],2 µg/mL
